Test results from patent publication US9527850B2, “Benzyl piperidine compounds as lysophosphatidic acid (LPA) receptor antagonist” (Merck Patent GmbH, priority 2011, dated 2016).

The molecules below were run against T1, LPA2 receptor (LPA2R) (Homo sapiens, UniProt Q9HBW0) (assay: LPA2R-Calciumflux assay (intracellular calcium mobilisation, FLIPR)). Settings: U2OS cells recombinant expressing LPA2R; inhibition of LPA-induced Ca-flux; 10 concentrations 30 uM to 1 nM, 1% DMSO.
T1 construct: expressed in transfected cells; host or cells: U2OS
Format: cell-based
From the text: The assay detects intra cellular calcium which is generated by cells upon activation of the LPA2 receptor by its ligand LPA. This transient calcium mobilization can be monitored using a commercial calcium detection kit (e.g. from Molecular Devices). The main component of such a kit is a dye, which becomes fluorescent when calcium is present—a transient fluorescence signal after laddition of a ligand to a test well are the result. Readers like the FLIPR (Molecular Devices) can be used to monitor such transient “Ca-flux” signals.
The signals are calculated according to peak maximum minus base line.
The assay is performed in microplates (384 wells per plate).
LPA2R-Calciumflux Assay Protocol
The assay is run according to the following procedure: • 50 uL seed cells (10000 cells/well in DMEM buffer) • Incubate 24 h at 37° C., 10% CO2 • aspirate medium • 50 uL add calcium dye 1×HBSS/HEPES buffer • incubate 1 h at 37° C. (“loading”) • equilibrate 10 min at RT • 5 uL add compounds in HEPES buffer • shake 10 sec. at 1000 rpm • incubate 15 min at RT • 20 uL add LPA (in the FLIPR Tetra) in Krebs-buffer/BSA & measurement
The cells are seeded in DMEM buffer (DMEM, 10% FCS, 10 mM HEPES, 1% Pen/Strep).
Dye loading is done in HBSS/HEPES buffer (100 mL 10×HBSS+20 mL 1M HEPES+880 mL water, pH 7.4)
The LPA is added in Krebs/BSA buffer (120 mM NaCl, 5 mM KCl, 0.62 mM MgSO4, 1.8 mM CaCl2, 10 mM HEPES, 6 mM D(+)-Glucose, 0.2% BSA, pH 7.4).
The compounds are pre-diluted in HEPES buffer (20 mM, pH 7.4), whereby the final DMSO content in the assay is kept at 1%. The compounds are pre-diluted in order to generate dose response series on the microplates. The dose response series consist of 10 concentrations for each compound from 30 uM final to 1 nM final. From all compound wells the resulting signals are referred to control wells (located on each plate besides the compound wells) in terms of % activity.
From these % activity values—along with the corresponding compound concentrations—IC50 values are fitted for each compound using standard fitting programs such as Graphpad Prism. Here the method “log(inhibitor) vs. response—Variable slope” is used.

T1 sequence (Q9HBW0 whole entry): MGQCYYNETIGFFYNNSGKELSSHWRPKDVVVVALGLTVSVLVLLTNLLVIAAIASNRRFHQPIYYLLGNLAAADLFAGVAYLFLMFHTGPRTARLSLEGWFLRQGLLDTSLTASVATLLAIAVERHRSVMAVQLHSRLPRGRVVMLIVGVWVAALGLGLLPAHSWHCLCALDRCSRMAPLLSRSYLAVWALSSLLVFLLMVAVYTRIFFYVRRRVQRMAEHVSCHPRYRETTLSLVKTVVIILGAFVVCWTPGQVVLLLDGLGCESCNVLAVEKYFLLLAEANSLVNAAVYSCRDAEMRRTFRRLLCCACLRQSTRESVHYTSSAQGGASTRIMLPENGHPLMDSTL

IC50	Compound
< 500 nM	Fc1ccc(CN2CCCCC2c2nc3cc(F)ccc3[nH]2)cc1 (stereo not shown) [compound 49, 5-Fluoro-2-[1-(4-fluoro-benzyl)-piperidin-2-yl]-1H-benzo-imidazole]
500 to 5000 nM	Cc1ccc(CN2CCCCC2c2cc3ccccc3o2)cc1C (stereo not shown) [compound 50, 2-Benzofuran-2-yl-1-(3,4-dimethyl-benzyl)-piperidine]
< 500 nM	Cc1ccc(CN2CCCCC2c2nc3cc(F)ccc3[nH]2)cc1C (stereo not shown) [compound 51, 2-[1-(3,4-Dimethyl-benzyl)-piperidin-2-yl]-5-fluoro-1H-benzo-imidazole]
5000 to 15000 nM	Cc1ccc(CN2CCCCC2c2nc3ccccc3s2)cc1C (stereo not shown) [compound 52, 2-[1-(3,4-Dimethyl-benzyl)-piperidin-2-yl]-benzo-thiazole]
500 to 5000 nM	Fc1ccc2[nH]c(C3CCCCN3Cc3cccc(Cl)c3Cl)cc2c1 (stereo not shown) [compound 54, 2-[1-(2,3-Dichloro-benzyl)-piperidin-2-yl]-5-fluoro-1H-indole]
500 to 5000 nM	COc1cc(CN2CCCCC2c2cc3cc(F)ccc3[nH]2)cc(OC)c1 (stereo not shown) [compound 55, 2-[1-(3,5-Dimethoxy-benzyl)-piperidin-2-yl]-5-fluoro-1H-indole]
500 to 5000 nM	Fc1ccc2[nH]c(C3CCCCN3Cc3ccccn3)cc2c1 (stereo not shown) [compound 56, 5-Fluoro-2-(1-pyridin-2-ylmethyl-piperidin-2-yl)-1H-indole]
500 to 5000 nM	Fc1ccc2[nH]c(C3CCCCN3Cc3cccc(Br)c3)cc2c1 (stereo not shown) [compound 57, 2-[1-(3-Bromo-benzyl)-piperidin-2-yl]-5-fluoro-1H-indole]
500 to 5000 nM	Fc1ccc2[nH]c(C3CCCCN3Cc3ccc(Br)cc3)cc2c1 (stereo not shown) [compound 58, 2-[1-(4-Bromo-benzyl)-piperidin-2-yl]-5-fluoro-1H-indole]
5000 to 15000 nM	Fc1ccc2[nH]c(C3CCCCN3Cc3ccc(Cl)cc3Cl)cc2c1 (stereo not shown) [compound 59, 2-[1-(2,4-Dichloro-benzyl)-piperidin-2-yl]-5-fluoro-1H-indole]
5000 to 15000 nM	Fc1ccc2[nH]c(C3CCCCN3Cc3ccc(Cl)c(Cl)c3)cc2c1 (stereo not shown) [compound 60, 2-[1-(3,4-Dichlorobenzyl)-piperidin-2-yl]-5-fluoro-1H-indole]
500 to 5000 nM	CC1CCC(c2cc3cc(F)ccc3[nH]2)N(Cc2ccc(F)cc2)C1 (stereo not shown) [compound 61, 5-Fluoro-2-[1-(4-fluoro-benzyl)-5-methyl-piperidin-2-yl]-1H-indole]
5000 to 15000 nM	COc1cccc(CN2CC(C)CCC2c2cc3cc(F)ccc3[nH]2)c1 (stereo not shown) [compound 62, 5-Fluoro-2-[1-(3-methoxy-benzyl)-5-methyl-piperidin-2-yl]-1H-indole]
500 to 5000 nM	Fc1ccc2[nH]c(C3CCCCN3Cc3c[nH]c4ccccc34)cc2c1 (stereo not shown) [compound 63, 5-Fluoro-2-[1-(1H-indol-3-ylmethyl)-piperidin-2-yl]-1H-indole]
500 to 5000 nM	COc1ccc(CN2CCC(C)CC2c2cc3cc(F)ccc3[nH]2)cc1 (stereo not shown) [compound 64, 5-Fluoro-2-[1-(4-methoxy-benzyl)-4-methyl-piperidin-2-yl]-1H-indole]
500 to 5000 nM	Cc1ccc2c(c1)c(CN1CCCCC1c1cc3cc(F)ccc3[nH]1)cn2C (stereo not shown) [compound 65, 3-[2-(5-Fluoro-1H-indol-2-yl)-piperidin-1-ylmethyl]-1,5-dimethyl-1H-indole]
500 to 5000 nM	Cc1ccc2c(CN3CCCCC3c3cc4cc(F)ccc4[nH]3)cn(C)c2c1 (stereo not shown) [compound 66, 3-[2-(5-Fluoro-1H-indol-2-yl)-piperidin-1-ylmethyl]-1,6-dimethyl-1H-indole]
500 to 5000 nM	Brc1ccc(CN2CCCCC2c2cc3ccccc3[nH]2)cc1 (stereo not shown) [compound 67, 2-[1-(4-Bromo-benzyl)-piperidin-2-yl]-1H-indole]
500 to 5000 nM	COc1ccc(CN2CCC(C)CC2c2cc3ccccc3[nH]2)cc1 (stereo not shown) [compound 68, 2-[1-(4-Methoxy-benzyl)-4-methyl-piperidin-2-yl]-1H-indole]
500 to 5000 nM	Cc1cc(C)c2cc(C3CCCCN3Cc3ccc(F)cc3)[nH]c2c1 (stereo not shown) [compound 69, 2-[1-(4-Fluoro-benzyl)-piperidin-2-yl]-4,6-dimethyl-1H-indole]
500 to 5000 nM	Cc1ccc2[nH]c(C3CCCCN3Cc3ccc(F)cc3)cc2c1 (stereo not shown) [compound 70]
500 to 5000 nM	COc1cccc(CN2CCCCC2c2cc3cc(C)ccc3[nH]2)c1 (stereo not shown) [compound 71, 2-[1-(3-Methoxy-benzyl)-piperidin-2-yl]-5-methyl-1H-indole]

IC50	Compound
< 500 nM	CC(c1ccc(F)cc1)N1CCCCC1c1cc2cc(F)ccc2[nH]1 (stereo not shown) [compound 72, 5-Fluoro-2-{1-[1-(4-fluoro-phenyl)-ethyl]-piperidin-2-yl}-1H-indole]
< 500 nM	COc1ccc(CN2CCCCC2c2cc3cc(Cl)ccc3[nH]2)cc1 (stereo not shown) [compound 73, 5-Chloro-2-[1-(4-methoxy-benzyl)-piperidin-2-yl]-1H-indole]
500 to 5000 nM	COc1cccc(CN2CCC(C)CC2c2cc3cc(Cl)ccc3[nH]2)c1 (stereo not shown) [compound 74, 5-Chloro-2-[1-(3-methoxy-benzyl)-4-methyl-piperidin-2-yl]-1H-indole]
< 500 nM	Cc1c(C2CCCCN2Cc2ccc(F)cc2)[nH]c2ccc(F)cc12 (stereo not shown) [compound 75, 5-Fluoro-2-[1-(4-fluoro-benzyl)-piperidin-2-yl]-3-methyl-1H-indole]
5000 to 15000 nM	COc1ccc(CN2CCCC(C)C2c2cc3c4c(ccc3[nH]2)CCC4)cc1 (stereo not shown) [compound 76, 2-[1-(4-Methoxy-benzyl)-3-methyl-piperidin-2-yl]-3,6,7,8-tetrahydro-cyclopenta [e]indole]
500 to 5000 nM	Cc1ccc(CN2CCC(C)CC2c2cc3ccccc3[nH]2)cc1C (stereo not shown) [compound 79, 2-[1-(3,4-Dimethyl-benzyl)-4-methyl-piperidin-2-yl]-1H-indole]
500 to 5000 nM	CC1CCCN(Cc2ccc(F)cc2)C1c1cc2ccccc2[nH]1 (stereo not shown) [compound 81, 2-[1-(4-Fluoro-benzyl)-3-methyl-piperidin-2-yl]-1H-indole]
< 500 nM	COc1cccc(CN2CCCCC2c2cc3cc(OC)ccc3[nH]2)c1 (stereo not shown) [compound 82, 5-Methoxy-2-[1-(3-methoxy-benzyl)-piperidin-2-yl]-1H-indole]
500 to 5000 nM	COc1ccc2[nH]c(C3CC(C)CCN3Cc3ccc(C)c(C)c3)cc2c1 (stereo not shown) [compound 83, 2-[1-(3,4-Dimethyl-benzyl)-4-methyl-piperidin-2-yl]-5-methoxy-1H-indole]
< 500 nM	Cc1cc(C)cc(CN2CCCCC2c2cc3cc(F)ccc3[nH]2)c1 (stereo not shown) [compound 84, 2-[1-(3,5-Dimethyl-benzyl)-piperidin-2-yl]-5-fluoro-1H-indole]
< 500 nM	CCc1nc(CN2CCCCC2c2cc3cc(F)ccc3[nH]2)cs1 (stereo not shown) [compound 85]
500 to 5000 nM	N#Cc1cccc(CN2CCCCC2c2cc3cc(F)ccc3[nH]2)c1 (stereo not shown) [compound 86, 3-[2-(5-Fluoro-1H-indol-2-yl)-piperidin-1-ylmethyl]-benzonitrile]
< 500 nM	Cc1ccc(CN2CCC(C)CC2c2cc3cc(F)ccc3[nH]2)cc1C (stereo not shown) [compound 87, 2-[1-(3,4-Dimethyl-benzyl)-4-methyl-piperidin-2-yl]-5-fluoro-1H-indole]
< 500 nM	Cc1ccc(CN2CCCCC2c2nc3ccc(Cl)cc3[nH]2)cc1C (stereo not shown) [compound 88, 6-Chloro-2-[1-(3,4-dimethyl-benzyl)-piperidin-2-yl]-1H-benzo-imidazole]
500 to 5000 nM	FC(F)(F)c1cccc(CN2CCCCC2c2nc3ccc(Cl)cc3[nH]2)c1 (stereo not shown) [compound 89]
500 to 5000 nM	Cc1ccc(CN2CCCCC2c2nc3ccc(Cl)cc3[nH]2)cc1C(F)(F)F (stereo not shown) [compound 90]
< 500 nM	Cc1cccc(CN2CCCCC2c2nc3ccc(Cl)cc3[nH]2)c1 (stereo not shown) [compound 91, 6-Chloro 2-[1-(3-methyl-benzyl)-piperidin-2-yl]-1H-benzo-imidazole]
500 to 5000 nM	FC(F)(F)c1cccc(CN2CCCCC2c2nc3ccc(Br)cc3[nH]2)c1 (stereo not shown) [compound 92]
500 to 5000 nM	Cc1ccc(CN2CCCCC2c2nc3ccc(Br)cc3[nH]2)cc1C(F)(F)F (stereo not shown) [compound 93]
5000 to 15000 nM	CC1(C)CCC(C)(C)c2cc(CN3CCCCC3c3nc4ccc(Br)cc4[nH]3)ccc21 (stereo not shown) [compound 94, 6-Bromo-2-[1-(5,5,8,8-tetramethyl-5,6,7,8-tetrahydro-naphthalen-2-ylmethyl)-piperidin-2-yl]-1H-benzo-imidazole]
< 500 nM	Cc1cccc(CN2CCCCC2c2nc3ccc(Br)cc3[nH]2)c1 (stereo not shown) [compound 95, 6-Bromo-2-[1-(3-methyl-benzyl)-piperidin-2-yl]-1H-benzo-imidazole]
